Results: ChEMBL document CHEMBL1201862, “PubChem BioAssay data set” (2004)
Activity calls are given as the source filed them.

Legend:
[1] = biological target: T1, Luciferin 4-monooxygenase (Photinus pyralis, UniProt P08659); assay: Counter Screen for Luciferase-based Assay Positives. [Related pubchem assays: 620, 618, 411 ]
[2] = biological target: T1, Luciferin 4-monooxygenase; assay: firefly luciferase enzyme inhibitors, dose response, biochemical, luminescence (AID 1891)
[3] = Luminescence Cell-Based Dose Confirmation HTS to Identify Inhibitors of Platelet Dense Granule Release. [Related pubchem assays: 1663 (Primary HTS), 1678 (Summary of Project)]; format: functional
HT-1080 = assay: cytotoxicity in HT1080 fibrosarcoma cells, cell-based, fluorescence readout (AID 620); format: functional; conditions: Homo sapiens
[4] = HIV-1 Env-mediated cell fusion inhibitors, dose response, CCR5-tropic Env (AID 2279); format: functional
Vero = Vero cell cytotoxicity, cytotoxicity control for flavivirus capping enzyme inhibitors (AID 588742); format: functional; conditions: Chlorocebus sabaeus
Genome polyprotein = Genome polyprotein (dengue virus type 2, UniProt P29990); assay: Dengue-2 NS5 methyltransferase inhibitors, primary screen, biochemical, confirmation dose response (AID 588689); format: functional
[5] = Luminescence Cell-Based Dose Confirmation HTS to Identify Activators of 5'UTR Stem-Loop Driven Alpha-Synuclein mRNA Translation in H4 Neuroglioblastoma Cells. [Related pubchem assays: 1829 (Project Summary), 1814 (Primary HTS)]; format: functional
[6] = Luminescence Cell-Based Dose Response HTS to Identify Activators of Luciferase Translation or Activity in H4 […] Cells. [Related pubchem assays: 1829 (Project Summary), 1814 (Primary HTS)]; format: functional
H4 = assay: Luminescence Cell-Based Dose Response HTS to Identify Activators of 5'UTR Stem-Loop Driven Prion Protein mRNA Translation in H4 Neuroglioblastoma Cells. [Related pubchem assays: 1829 (Project Summary), 1814 (Primary HTS)]; format: functional; conditions: Homo sapiens
[7] = biological target: 5-hydroxytryptamine receptor 1E (Homo sapiens, UniProt P28566); assay: Counterscreen assay for S1P3 antagonists: Dose response cell-based high throughput screening assay to identify antagonists of the 5-Hydroxytryptamine Receptor Subtype 1E (5HT1E). [Related pubchem assays: 1429, 485 ]; format: functional
[8] = biological target: Sphingosine 1-phosphate receptor 3 (Homo sapiens, UniProt Q99500); assay: Dose response cell-based high throughput screening assay for antagonists of the Sphingosine 1-Phosphate Receptor 3 (S1P3). [Related pubchem assays: 1429, 485 ]; format: functional
[9] = biological target: Neurotensin receptor type 1 (Homo sapiens, UniProt P30989); format: functional;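 note: Image-based confirmatory dose-response assay measuring agonist activity at NTR1; NTR1-expressing U2OS osteosarcoma cells imaged for beta-arrestin GFP spot formation; agonist potency where compounds increase beta-arrestin recruitment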
Neurotensin receptor type 1, sequence (P30989 whole entry): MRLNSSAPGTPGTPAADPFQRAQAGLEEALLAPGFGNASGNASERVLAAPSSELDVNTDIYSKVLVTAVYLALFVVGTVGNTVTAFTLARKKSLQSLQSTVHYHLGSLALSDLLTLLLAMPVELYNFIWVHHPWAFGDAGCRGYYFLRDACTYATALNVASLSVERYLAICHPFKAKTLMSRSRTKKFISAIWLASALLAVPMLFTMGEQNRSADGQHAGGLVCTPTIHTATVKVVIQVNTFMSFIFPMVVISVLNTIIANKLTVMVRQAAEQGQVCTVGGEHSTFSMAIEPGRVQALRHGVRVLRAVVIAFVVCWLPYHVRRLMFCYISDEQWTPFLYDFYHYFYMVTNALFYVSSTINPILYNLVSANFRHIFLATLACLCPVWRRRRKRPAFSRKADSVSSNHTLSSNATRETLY

[10] = cytotoxicity in HEK-293T cells, dose response, cytotoxicity control for TCR NF-kB inhibitor project, luminescence, T-cell screen hits (AID 489026); format: functional, cell-based;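 note: cells exposed to compound about 14 hours before the viability readout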
INS1 = assay: beta cell apoptosis inhibitors, cytokine rescue, dose response, luminescence, retest (AID 449756); format: functional, cell-based; conditions: Rattus norvegicus;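 note: cell death triggered by IL-1 beta plus TNF-alpha plus IFN-gamma mixture; protective hits raise ATP signal compared with cytokine alone wells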
[11] = HepG2 cell cytotoxicity, dose response, cytotoxicity control, plate reader, cherry-pick, antagonist series (AID 743416); format: functional, cell-based
[12] = LGR2 antagonists, dose response, cell-based, HEK293, CRE-luciferase reporter, cherry pick, set 2 (AID 743343); format: functional;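 note: transfected cells were stimulated with diluted bursicon conditioned medium after compound addition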
[13] = MC4R antagonists, dose response, counter-screen for LGR2 antagonist project, cell-based, plate reader, cherry pick (AID 743444); format: functional;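 note: transfected HEK 293 cells stimulated with alpha-MSH peptide; potency of inhibitors of the alpha-MSH evoked signal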
Estrogen receptor = biological target: T2, Estrogen receptor (Homo sapiens, UniProt P03372); assay: ERα–SRC-3 coactivator interaction inhibitors, confirmation, orthogonal assay, biochemical, ELISA, streptavidin-HRP readout (AID 1079)
T2 sequence (P03372 whole entry): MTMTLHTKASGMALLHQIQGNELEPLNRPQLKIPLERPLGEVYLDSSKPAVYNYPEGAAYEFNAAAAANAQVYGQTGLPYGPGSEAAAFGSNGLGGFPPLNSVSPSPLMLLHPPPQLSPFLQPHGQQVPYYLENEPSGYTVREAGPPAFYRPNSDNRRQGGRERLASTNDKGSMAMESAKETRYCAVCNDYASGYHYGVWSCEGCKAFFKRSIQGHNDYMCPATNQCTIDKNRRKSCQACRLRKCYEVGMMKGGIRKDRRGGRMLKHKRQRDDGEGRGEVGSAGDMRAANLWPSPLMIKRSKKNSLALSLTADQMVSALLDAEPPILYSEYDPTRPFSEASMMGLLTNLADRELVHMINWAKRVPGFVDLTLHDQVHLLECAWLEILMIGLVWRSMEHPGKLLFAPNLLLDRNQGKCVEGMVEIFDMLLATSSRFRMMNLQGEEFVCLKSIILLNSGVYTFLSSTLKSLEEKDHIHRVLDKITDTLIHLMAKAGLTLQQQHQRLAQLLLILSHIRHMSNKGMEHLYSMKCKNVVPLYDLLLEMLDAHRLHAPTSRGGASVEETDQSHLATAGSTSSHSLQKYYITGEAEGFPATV

[14] = Luminescence Cell-Based Dose Response HTS to Identify Inhibitors of 5'UTR Stem-Loop Driven Prion Protein mRNA Translation in H4 Neuroglioblastoma Cells. [Related pubchem assays: 1827 (Project Summary), 1813 (Primary HTS)]; format: functional
[15] = inhibitors of SNCA 5'UTR-driven reporter translation, confirmation, H4 neuroglioma cells, luminescence (AID 1988); format: functional, cell-based
[16] = Luminescence-based counterscreen assay for KLF5 inhibitors: dose response cell-based high throughput screening assay to identify cytotoxic compounds using the IEC-6 intestinal epithelial cell line. [Related pubchem assays: 1700 (Primary screen.), 1834 (Confirmation screen.), 1858 (Summary AID.), 1905 (Counterscreen.)]; format: functional
[17] = biological target: T3, RNA-binding protein pos-1 (Caenorhabditis elegans, UniProt G5EF15); assay: inhibitors of POS-1/mex-3 RNA binding, dose response, biochemical, fluorescence polarization (AID 1964);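 note: purified POS-1 fused to maltose binding protein made in E. coli; potency of compounds blocking POS-1 binding to fluorescent RNA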
T3 sequence (G5EF15 whole entry): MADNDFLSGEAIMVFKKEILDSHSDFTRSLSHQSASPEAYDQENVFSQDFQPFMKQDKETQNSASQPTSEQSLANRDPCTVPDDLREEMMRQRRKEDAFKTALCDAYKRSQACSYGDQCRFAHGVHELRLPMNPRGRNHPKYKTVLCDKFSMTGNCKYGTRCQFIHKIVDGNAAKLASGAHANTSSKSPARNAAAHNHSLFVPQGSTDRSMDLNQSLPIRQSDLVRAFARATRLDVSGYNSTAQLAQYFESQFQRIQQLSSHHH

[18] = biological target: T4, Zinc finger protein mex-5 (Caenorhabditis elegans, UniProt Q9XUB2); assay: MEX-5/TCR-2 RNA interaction inhibitors, dose response, biochemical, C. elegans, fluorescence polarization (AID 1960)
T4 sequence (Q9XUB2 whole entry): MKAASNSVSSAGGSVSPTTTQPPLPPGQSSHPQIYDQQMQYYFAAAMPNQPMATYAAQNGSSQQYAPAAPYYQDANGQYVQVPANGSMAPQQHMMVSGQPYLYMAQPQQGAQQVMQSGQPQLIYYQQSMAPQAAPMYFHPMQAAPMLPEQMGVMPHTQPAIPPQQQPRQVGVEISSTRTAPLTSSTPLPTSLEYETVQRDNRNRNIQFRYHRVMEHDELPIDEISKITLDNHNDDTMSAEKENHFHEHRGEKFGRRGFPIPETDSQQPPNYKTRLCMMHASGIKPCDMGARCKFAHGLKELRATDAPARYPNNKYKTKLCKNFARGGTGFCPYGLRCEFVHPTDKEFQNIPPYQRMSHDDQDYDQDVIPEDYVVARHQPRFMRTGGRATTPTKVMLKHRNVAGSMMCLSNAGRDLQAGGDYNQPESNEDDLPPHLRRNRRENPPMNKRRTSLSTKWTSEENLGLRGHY

[19] = biological target: T5, Voltage-gated N-type calcium channel alpha-1B subunit/Amyloid beta A4 precursor protein-binding family A member 1 (Homo sapiens, UniProt Q00975+Q02410); format: protein assay
T5 sequence (Q00975 whole entry): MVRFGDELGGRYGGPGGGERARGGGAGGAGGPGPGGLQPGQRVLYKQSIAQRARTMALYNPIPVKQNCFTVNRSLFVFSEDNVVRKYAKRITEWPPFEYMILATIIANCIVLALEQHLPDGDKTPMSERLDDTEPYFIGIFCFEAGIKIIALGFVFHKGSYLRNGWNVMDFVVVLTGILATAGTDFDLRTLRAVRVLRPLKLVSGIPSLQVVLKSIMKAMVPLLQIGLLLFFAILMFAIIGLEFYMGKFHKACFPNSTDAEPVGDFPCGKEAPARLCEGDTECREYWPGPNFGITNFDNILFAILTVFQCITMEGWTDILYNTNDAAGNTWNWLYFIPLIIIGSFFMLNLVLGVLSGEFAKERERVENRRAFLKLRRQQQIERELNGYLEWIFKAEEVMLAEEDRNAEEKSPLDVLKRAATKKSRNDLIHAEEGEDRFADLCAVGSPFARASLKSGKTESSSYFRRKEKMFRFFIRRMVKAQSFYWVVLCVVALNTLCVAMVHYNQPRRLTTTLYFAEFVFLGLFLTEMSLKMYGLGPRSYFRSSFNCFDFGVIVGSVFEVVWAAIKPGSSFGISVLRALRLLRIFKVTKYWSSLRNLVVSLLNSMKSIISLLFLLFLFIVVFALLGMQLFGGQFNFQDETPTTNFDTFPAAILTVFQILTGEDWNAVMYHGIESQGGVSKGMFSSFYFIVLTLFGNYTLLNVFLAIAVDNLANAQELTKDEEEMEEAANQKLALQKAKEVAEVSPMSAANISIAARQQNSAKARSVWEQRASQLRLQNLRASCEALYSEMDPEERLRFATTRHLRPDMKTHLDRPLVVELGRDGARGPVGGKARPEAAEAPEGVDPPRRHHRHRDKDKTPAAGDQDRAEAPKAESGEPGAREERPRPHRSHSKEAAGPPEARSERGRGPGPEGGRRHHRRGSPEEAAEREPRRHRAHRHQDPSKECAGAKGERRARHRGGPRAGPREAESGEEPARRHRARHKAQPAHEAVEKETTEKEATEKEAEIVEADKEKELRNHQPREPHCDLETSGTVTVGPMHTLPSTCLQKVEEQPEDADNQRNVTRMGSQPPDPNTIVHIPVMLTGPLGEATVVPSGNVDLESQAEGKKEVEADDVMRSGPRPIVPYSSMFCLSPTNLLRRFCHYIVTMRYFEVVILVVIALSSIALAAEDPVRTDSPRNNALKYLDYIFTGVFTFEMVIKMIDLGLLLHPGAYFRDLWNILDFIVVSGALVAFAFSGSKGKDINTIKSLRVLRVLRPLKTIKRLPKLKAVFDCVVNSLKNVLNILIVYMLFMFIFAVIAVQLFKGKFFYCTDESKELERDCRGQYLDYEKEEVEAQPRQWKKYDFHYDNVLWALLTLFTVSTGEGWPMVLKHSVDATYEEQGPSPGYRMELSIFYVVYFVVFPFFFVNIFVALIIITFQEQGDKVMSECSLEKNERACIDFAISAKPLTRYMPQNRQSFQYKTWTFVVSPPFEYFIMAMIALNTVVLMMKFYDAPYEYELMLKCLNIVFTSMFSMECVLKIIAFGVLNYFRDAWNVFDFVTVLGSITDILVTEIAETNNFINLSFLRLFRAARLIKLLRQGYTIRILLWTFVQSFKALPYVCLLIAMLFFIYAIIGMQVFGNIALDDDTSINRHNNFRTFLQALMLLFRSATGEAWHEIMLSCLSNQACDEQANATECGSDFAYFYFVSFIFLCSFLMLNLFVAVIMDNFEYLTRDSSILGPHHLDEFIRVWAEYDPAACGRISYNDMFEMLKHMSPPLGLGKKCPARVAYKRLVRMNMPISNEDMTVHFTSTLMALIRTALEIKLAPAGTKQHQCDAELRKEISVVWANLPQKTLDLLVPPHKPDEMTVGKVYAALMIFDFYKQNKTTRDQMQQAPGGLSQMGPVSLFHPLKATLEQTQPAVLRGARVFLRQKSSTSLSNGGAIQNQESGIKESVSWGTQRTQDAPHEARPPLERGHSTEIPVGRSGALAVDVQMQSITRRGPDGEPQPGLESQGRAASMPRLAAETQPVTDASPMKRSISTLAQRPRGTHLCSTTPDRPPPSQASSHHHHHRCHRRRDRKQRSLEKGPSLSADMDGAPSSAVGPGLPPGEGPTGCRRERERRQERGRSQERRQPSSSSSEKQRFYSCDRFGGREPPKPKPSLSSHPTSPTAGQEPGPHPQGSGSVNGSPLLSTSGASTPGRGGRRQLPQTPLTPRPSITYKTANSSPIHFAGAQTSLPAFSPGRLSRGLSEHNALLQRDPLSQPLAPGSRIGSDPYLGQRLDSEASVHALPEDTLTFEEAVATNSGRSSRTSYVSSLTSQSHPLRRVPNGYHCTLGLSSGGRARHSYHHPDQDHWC
T5 sequence (Q02410 whole entry): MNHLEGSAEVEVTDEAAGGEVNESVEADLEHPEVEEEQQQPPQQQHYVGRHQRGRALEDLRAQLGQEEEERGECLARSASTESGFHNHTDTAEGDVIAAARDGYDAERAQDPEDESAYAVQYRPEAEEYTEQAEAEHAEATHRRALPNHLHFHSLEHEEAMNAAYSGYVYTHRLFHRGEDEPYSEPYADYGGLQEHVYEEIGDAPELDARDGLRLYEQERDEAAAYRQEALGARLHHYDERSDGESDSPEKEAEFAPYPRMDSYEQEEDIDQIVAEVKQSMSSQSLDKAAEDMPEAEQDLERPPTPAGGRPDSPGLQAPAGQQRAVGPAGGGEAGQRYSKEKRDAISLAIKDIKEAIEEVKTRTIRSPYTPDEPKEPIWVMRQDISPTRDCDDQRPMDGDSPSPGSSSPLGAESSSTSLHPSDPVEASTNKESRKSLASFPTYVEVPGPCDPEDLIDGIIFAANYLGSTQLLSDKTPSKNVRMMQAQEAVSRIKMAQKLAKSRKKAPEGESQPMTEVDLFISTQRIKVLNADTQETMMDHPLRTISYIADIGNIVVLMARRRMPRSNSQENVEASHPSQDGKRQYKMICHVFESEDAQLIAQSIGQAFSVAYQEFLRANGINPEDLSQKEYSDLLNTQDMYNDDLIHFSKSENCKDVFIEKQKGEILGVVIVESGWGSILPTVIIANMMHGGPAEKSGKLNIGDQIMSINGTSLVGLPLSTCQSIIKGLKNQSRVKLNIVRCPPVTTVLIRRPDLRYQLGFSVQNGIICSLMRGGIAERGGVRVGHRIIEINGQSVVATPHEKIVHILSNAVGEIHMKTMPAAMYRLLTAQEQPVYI

[20] = biological target: T5, Voltage-gated N-type calcium channel alpha-1B subunit/Amyloid beta A4 precursor protein-binding family A member 1; format: protein assay; remark: listed apart in the source
[21] = biological target: Induced myeloid leukemia cell differentiation protein Mcl-1 (Homo sapiens, UniProt Q07820); assay: MCL1-BIM BH3 interaction inhibitors, dose response, biochemical, fluorescence polarization, BIM-BH3 peptide, 1536-well (AID 2217)
Induced myeloid leukemia cell differentiation protein Mcl-1, sequence (Q07820 whole entry): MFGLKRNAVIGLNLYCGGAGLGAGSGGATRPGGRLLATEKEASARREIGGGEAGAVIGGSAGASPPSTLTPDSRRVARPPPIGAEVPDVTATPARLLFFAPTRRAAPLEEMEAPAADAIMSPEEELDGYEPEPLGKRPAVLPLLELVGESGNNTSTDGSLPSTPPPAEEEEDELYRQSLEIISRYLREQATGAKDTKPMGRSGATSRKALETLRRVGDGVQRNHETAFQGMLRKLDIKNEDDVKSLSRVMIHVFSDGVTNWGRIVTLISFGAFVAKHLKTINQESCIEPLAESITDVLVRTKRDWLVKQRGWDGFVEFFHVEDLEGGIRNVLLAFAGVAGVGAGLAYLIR

Bcl-2-like protein 1 = Bcl-2-like protein 1 (Homo sapiens, UniProt Q07817); assay: BCL-XL inhibitors, dose response, selectivity assay for MCL1 inhibitor project, biochemical, fluorescence polarization, 1536-well (AID 2218)
Hexokinase HKDC1 = biological target: T6, Hexokinase HKDC1 (Homo sapiens, UniProt Q2TB90); assay: HKDC1 hexokinase inhibitors, dose response, biochemical, W721R variant (AID 504729); format: functional
T6 sequence (Q2TB90 whole entry): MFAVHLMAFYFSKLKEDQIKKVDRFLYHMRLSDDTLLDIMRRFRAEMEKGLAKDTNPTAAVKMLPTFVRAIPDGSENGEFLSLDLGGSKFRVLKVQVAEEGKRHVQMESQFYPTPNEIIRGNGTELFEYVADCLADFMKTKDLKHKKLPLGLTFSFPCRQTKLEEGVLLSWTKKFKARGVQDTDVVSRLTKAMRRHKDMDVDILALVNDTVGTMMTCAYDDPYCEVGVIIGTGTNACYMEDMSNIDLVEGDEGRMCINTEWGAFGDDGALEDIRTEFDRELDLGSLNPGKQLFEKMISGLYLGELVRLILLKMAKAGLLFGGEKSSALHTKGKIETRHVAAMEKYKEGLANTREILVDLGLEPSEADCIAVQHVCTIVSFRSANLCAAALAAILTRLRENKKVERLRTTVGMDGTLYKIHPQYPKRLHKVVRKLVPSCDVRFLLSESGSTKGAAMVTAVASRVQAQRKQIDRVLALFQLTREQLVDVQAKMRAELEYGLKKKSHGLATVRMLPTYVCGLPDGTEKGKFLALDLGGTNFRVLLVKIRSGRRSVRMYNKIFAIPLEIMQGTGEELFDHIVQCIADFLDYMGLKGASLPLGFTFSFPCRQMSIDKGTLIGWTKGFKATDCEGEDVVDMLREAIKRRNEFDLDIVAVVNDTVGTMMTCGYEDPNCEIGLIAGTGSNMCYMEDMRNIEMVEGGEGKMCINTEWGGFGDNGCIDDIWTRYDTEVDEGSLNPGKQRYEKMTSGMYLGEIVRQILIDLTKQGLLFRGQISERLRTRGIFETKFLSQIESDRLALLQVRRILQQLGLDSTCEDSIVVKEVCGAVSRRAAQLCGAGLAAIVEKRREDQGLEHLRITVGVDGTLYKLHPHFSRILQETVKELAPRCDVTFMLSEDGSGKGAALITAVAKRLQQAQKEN

[22] = biological target: DNA (cytosine-5)-methyltransferase 1 (Homo sapiens, UniProt P26358); assay: DNMT1 methyltransferase inhibitors, confirmation, biochemical, fluorescent molecular beacon (AID 602386); format: functional
Bcl-2-like protein 10 = biological target: T7, Bcl-2-like protein 10 (Homo sapiens, UniProt Q9HD36); assay: Biochemical TR3 FP assay of Bcl-B inhibitor potency, EC50 (AID 1243); format: functional
T7 sequence (Q9HD36 whole entry): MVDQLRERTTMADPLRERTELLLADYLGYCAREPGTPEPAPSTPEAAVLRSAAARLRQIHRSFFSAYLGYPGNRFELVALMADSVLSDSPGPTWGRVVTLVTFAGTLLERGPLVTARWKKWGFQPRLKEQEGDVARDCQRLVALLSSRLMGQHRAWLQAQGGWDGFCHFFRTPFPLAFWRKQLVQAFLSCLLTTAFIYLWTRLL

[23] = biological target: Neuropeptide Y receptor type 1 (Homo sapiens, UniProt P25929); format: functional;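 note: HEK293 cells with a CNG channel challenged with NPY then isoproterenol; potency as antagonist that reverses NPY suppression of cAMP signal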
[24] = biological target: Neuropeptide Y receptor type 2 (Homo sapiens, UniProt P49146); format: functional, cell-based;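 note: HEK293 cells expressing the receptor and a CNG channel; stimulus was NPY near EC95 followed by isoproterenol to raise cAMP; antagonist potency measured as restoring cAMP signal that NPY suppresses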
Neuropeptide Y receptor type 2, sequence (P49146 whole entry, the tested form may be a part): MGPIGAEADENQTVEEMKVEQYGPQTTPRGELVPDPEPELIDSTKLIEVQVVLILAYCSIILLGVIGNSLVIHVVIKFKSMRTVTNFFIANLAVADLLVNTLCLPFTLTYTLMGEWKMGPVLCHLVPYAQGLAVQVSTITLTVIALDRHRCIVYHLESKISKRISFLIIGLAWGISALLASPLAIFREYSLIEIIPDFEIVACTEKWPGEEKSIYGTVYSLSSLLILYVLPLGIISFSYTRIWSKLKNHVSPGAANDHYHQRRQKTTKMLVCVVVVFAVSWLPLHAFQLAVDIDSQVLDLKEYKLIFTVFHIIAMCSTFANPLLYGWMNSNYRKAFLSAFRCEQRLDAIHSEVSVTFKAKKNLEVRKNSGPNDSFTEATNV

[25] = inhibitors of HIV Env-driven cell fusion, dose response, cherry-pick (AID 652057); format: functional, cell-based
[26] = CEM21 lymphoblast cell cytotoxicity, dose response, cytotoxicity control for viral fusion inhibitor project, CellTiter-Glo luminescence, cherry-picked (AID 652042); format: functional, cell-based;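 note: potency for signal decrease meaning cytotoxicity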
[27] = off-target signal loss in HeLa-CEM21 co-culture – HeLa F-luc CTL cells, cherry-picked, counter-screen for HIV-1 Env fusion inhibitor project, dose response (AID 652040); format: functional, cell-based;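 note: potency for signal decrease marking cytotoxic or nonspecific inhibition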
[28] = CEM21 cell cytotoxicity, dose response, cytotoxicity control, plate reader, dry powder (AID 687026); format: functional, cell-based

T1 sequence (P08659 whole entry): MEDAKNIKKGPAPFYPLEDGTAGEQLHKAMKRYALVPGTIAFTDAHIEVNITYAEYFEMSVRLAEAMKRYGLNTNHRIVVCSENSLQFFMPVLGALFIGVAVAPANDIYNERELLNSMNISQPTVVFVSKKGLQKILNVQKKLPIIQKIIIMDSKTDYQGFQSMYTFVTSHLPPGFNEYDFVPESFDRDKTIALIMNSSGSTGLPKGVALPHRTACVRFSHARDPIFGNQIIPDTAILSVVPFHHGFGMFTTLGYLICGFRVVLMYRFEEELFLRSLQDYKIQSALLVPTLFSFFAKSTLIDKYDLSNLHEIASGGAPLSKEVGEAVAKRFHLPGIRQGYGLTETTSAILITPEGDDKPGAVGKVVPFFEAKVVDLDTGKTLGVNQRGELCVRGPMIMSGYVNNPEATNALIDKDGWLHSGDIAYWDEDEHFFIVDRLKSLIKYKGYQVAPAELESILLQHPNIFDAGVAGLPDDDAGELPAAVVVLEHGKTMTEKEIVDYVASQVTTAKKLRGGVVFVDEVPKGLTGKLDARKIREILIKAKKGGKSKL

SMILES: Cc1ccsc1/C=C1\CCc2ccccc2C1=O
- EC50 [1]: 0.89 µM (active)
- EC50 [2]: 0.518 µM (active)
- EC50 [3]: 2.43 µM (active)
- EC50 (HT-1080): > 50 µM (not active)

SMILES: CC(C)(C)c1ccc(OCC(=O)NNC(=S)NC(=O)c2ccccc2[N+](=O)[O-])c(Br)c1
- IC50 [4]: > 50 µM (active)
- CC50 (Vero): > 40 µM (active)
- IC50 (Genome polyprotein): 56 µM (active)

SMILES: COc1ccc(CC(=O)Nc2cccc(-c3nnc(-c4cccc(C)c4)o3)c2)cc1OC
- EC50 [5]: 15 µM (active)
- EC50 [6]: 6.16 µM (active)
- EC50 (H4): 118 µM (active)
- IC50 [7]: 1.76 µM (active)
- IC50 [8]: 5.21 µM (active)
- EC50 [9]: 29.5 µM (inactive)
- IC50 [10]: 2.35 µM (active)
- AC50 (INS1): 2.47 µM (active)
- AC50 [11]: 47.6 µM (active)
- AC50 [12]: 8.16 µM (active)
- AC50 [13]: 10.5 µM (active)

SMILES: COc1cc2[nH]c(=S)n(CCCC(=O)N3CCN(c4cccc(Cl)c4)CC3)c(=O)c2cc1OC
- IC50 (Estrogen receptor): 2.36 µM (not active)

SMILES: CN(C)c1ccc(/C=C/c2nc(O)c3ccccc3n2)cc1
- EC50 [14]: 4.08 µM (active)
- EC50 [15]: 5.96 µM (active)
- IC50 [16]: 32.3 µM (not active)

SMILES: O=C(CNC(=O)/C=C/c1ccco1)N=Nc1c(O)[nH]c2ccccc12
- EC50 [17]: 13.1 µM (inconclusive)
- EC50 [18]: 5.49 µM (active)
- IC50 [19]: > 56.8 µM (not active)
- IC50 [20]: 4.97 µM (active)
- IC50 [21]: 9.7 µM (active)
- IC50 (Bcl-2-like protein 1): 37.1 µM (not active)
- IC50 (Hexokinase HKDC1): 25.3 µM (inactive)
- IC50 [22]: 3.25 µM (active)

SMILES: Cc1ccc(C(=O)c2coc3c2C(=O)C(=O)C(Cl)=C3Cl)cc1
- EC50 (Bcl-2-like protein 10): 6.17 µM (active)

SMILES: COc1ccccc1CCNCc1ccc(OC)c(OCc2ccccc2)c1
- IC50 [23]: 9.05 µM (active)
- IC50 [24]: 1.97 µM (active)
- AC50 [25]: 2.11 µM (active)
- AC50 [26]: 54.1 µM (active)
- AC50 [27]: > 70 µM (inactive)
- AC50 [28]: > 70 µM (inactive)
